According to ChEMBL document CHEMBL1201862, “PubChem BioAssay data set” (2004):
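Following 48 hours of exposure in 96-well plates, responses at five concentrations were used to interpolate endpoints linearly. The concentration for 50% growth inhibition is given as GI50.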 Calls of active or inactive are those of the source. Rule as the data show it: active = GI50 up to about 1.1 µM and inactive = higher.

Key:
Assay in all cases: DTP human tumour cell line panel, 48 h
KM12 = system: KM12
OVCAR-4 = system: OVCAR-4
SNB-75 = system: SNB-75
UACC-257 = system: UACC-257
Hs-578T = system: Hs-578T
SK-MEL-5 = system: SK-MEL-5
CCRF-CEM = system: CCRF-CEM
DU-145 = system: DU-145
SF-539 = system: SF-539
PC-3 = system: PC-3
COLO 205 = system: COLO 205
NCI/ADR-RES = system: NCI/ADR-RES
NCI-H23 = system: NCI-H23
M14 = system: M14
UO-31 = system: UO-31
A549 = system: A549
786-0 = system: 786-0
HCT-116 = system: HCT-116
MDA-MB-435 = system: MDA-MB-435
NCI-H226 = system: NCI-H226
OVCAR-3 = system: OVCAR-3
RXF 393 = system: RXF 393
LOX IMVI = system: LOX IMVI
HOP-62 = system: HOP-62
HCC 2998 = system: HCC 2998
Malme-3M = system: Malme-3M
HOP-92 = system: HOP-92
TK-10 = system: TK-10
MCF7 = system: MCF7
NCI-H460 = system: NCI-H460
SW-620 = system: SW-620
OVCAR-8 = system: OVCAR-8
CAKI-1 = system: CAKI-1
UACC-62 = system: UACC-62
SF-268 = system: SF-268
EKVX = system: EKVX
SF-295 = system: SF-295
A498 = system: A498
SK-MEL-28 = system: SK-MEL-28
K562 = system: K562
U-251 = system: U-251
RPMI-8226 = system: RPMI-8226
HCT-15 = system: HCT-15
SN12C = system: SN12C
SK-MEL-2 = system: SK-MEL-2
SK-OV-3 = system: SK-OV-3
BT-549 = system: BT-549
MOLT-4 = system: MOLT-4
T47D = system: T47D
HT-29 = system: HT-29
SNB-19 = system: SNB-19
MDA-N = system: MDA-N
OVCAR-5 = system: OVCAR-5
HL-60 = system: HL-60
MDA-MB-231 = system: MDA-MB-231
NCI-H522 = system: NCI-H522
IGROV-1 = system: IGROV-1
ACHN = system: ACHN

Measured: GI50

COc1cc(/C=C2\C(=O)N(c3ccc(Cl)cc3)C(c3ccccc3)S2(=O)=O)cc(OC)c1OC (stereo not given)
1.03 µM: HCT-15
active: SK-MEL-5 1.05 µM | M14 0.522 µM | MDA-MB-435 0.394 µM | K562 0.726 µM
inactive: KM12 3.72 µM | OVCAR-4 8.89 µM | SNB-75 53.8 µM | UACC-257 21.4 µM | Hs-578T > 100 µM | CCRF-CEM 8.53 µM | DU-145 > 100 µM | SF-539 57 µM | PC-3 22.8 µM | COLO 205 1.99 µM | NCI/ADR-RES 12.4 µM | NCI-H23 6.4 µM | UO-31 3.48 µM | A549 17.8 µM | 786-0 39.4 µM | HCT-116 3.37 µM | NCI-H226 > 84.1 µM | OVCAR-3 25.4 µM | RXF 393 22.4 µM | LOX IMVI 4.55 µM | HOP-62 > 34.5 µM | HCC 2998 41.4 µM | Malme-3M 42.3 µM | HOP-92 51.9 µM | TK-10 > 63 µM | MCF7 4.61 µM | NCI-H460 3.95 µM | SW-620 32.2 µM | OVCAR-8 93.1 µM | CAKI-1 38.5 µM | UACC-62 2.19 µM | SF-268 31 µM | EKVX 26.8 µM | SF-295 11.9 µM | A498 > 45.5 µM | SK-MEL-28 > 54.3 µM | U-251 29.1 µM | RPMI-8226 7.46 µM | SN12C > 25.8 µM | SK-MEL-2 9.77 µM | SK-OV-3 14 µM | BT-549 14.3 µM | MOLT-4 26.9 µM | T47D 2.77 µM | HT-29 42.5 µM | SNB-19 20 µM | MDA-N 2.04 µM | OVCAR-5 9.04 µM | HL-60 5.04 µM | MDA-MB-231 > 69.3 µM | NCI-H522 14.5 µM

COc1ccc(/C=C2\CC3C4CC=C5C[C@@H](O)CC[C@]5(C)C4CC[C@]3(C)C2=O)cc1OC (stereo not given in full)
inactive: KM12 32.8 µM | OVCAR-4 21.8 µM | SNB-75 16 µM | UACC-257 13 µM | Hs-578T 36.5 µM | SK-MEL-5 7.05 µM | IGROV-1 75.3 µM | CCRF-CEM 20.7 µM | DU-145 27.5 µM | SF-539 57.8 µM | PC-3 25.9 µM | COLO 205 16.3 µM | NCI/ADR-RES 45 µM | NCI-H23 42.6 µM | M14 65 µM | UO-31 14.8 µM | A549 27.9 µM | 786-0 40.3 µM | HCT-116 24 µM | MDA-MB-435 24.3 µM | NCI-H226 29.4 µM | OVCAR-3 5.09 µM | RXF 393 34 µM | LOX IMVI 30.8 µM | HOP-62 44 µM | HCC 2998 14.9 µM | Malme-3M 27.2 µM | HOP-92 74.6 µM | TK-10 32.3 µM | MCF7 23.3 µM | NCI-H460 17.3 µM | SW-620 65.6 µM | OVCAR-8 43.3 µM | CAKI-1 29.2 µM | UACC-62 42.9 µM | SF-268 64.7 µM | EKVX 28.2 µM | SF-295 11.4 µM | A498 28.6 µM | SK-MEL-28 81.1 µM | K562 12.5 µM | U-251 26.2 µM | RPMI-8226 10.2 µM | ACHN 24.5 µM | SN12C 23.1 µM | SK-MEL-2 24.2 µM | SK-OV-3 41.6 µM | BT-549 44.6 µM | MOLT-4 20 µM | T47D 8.28 µM | HT-29 31.8 µM | SNB-19 62.4 µM | MDA-N 42.2 µM | OVCAR-5 43.5 µM | HL-60 13.1 µM | MDA-MB-231 25.8 µM | NCI-H522 17.2 µM
34 µM: HCT-15

COC(=O)Nc1nc2cc(S(=O)(=O)NC(CC(C)C)C(=O)OC)ccc2[nH]1 (stereo not given)
active: Hs-578T 0.818 µM | SK-MEL-5 0.7 µM | MDA-MB-435 0.396 µM | OVCAR-3 0.721 µM | MDA-N 0.414 µM | NCI-H522 0.197 µM
2.81 µM: HCT-15
inactive: KM12 2.19 µM | OVCAR-4 4.83 µM | SNB-75 2.44 µM | IGROV-1 2.25 µM | CCRF-CEM 3.52 µM | DU-145 2.43 µM | SF-539 4.48 µM | PC-3 2.37 µM | COLO 205 3.22 µM | NCI/ADR-RES 6.08 µM | NCI-H23 3.25 µM | M14 1.8 µM | UO-31 5.96 µM | A549 7.29 µM | 786-0 3.14 µM | HCT-116 2.32 µM | NCI-H226 10.8 µM | RXF 393 3.21 µM | LOX IMVI 3.63 µM | HOP-62 3.48 µM | Malme-3M 3.08 µM | HOP-92 2.83 µM | TK-10 6.47 µM | MCF7 1.65 µM | NCI-H460 4.17 µM | SW-620 3.25 µM | OVCAR-8 3.96 µM | CAKI-1 3.66 µM | UACC-62 4.01 µM | SF-268 10.8 µM | EKVX 3.93 µM | SF-295 1.83 µM | A498 3.13 µM | SK-MEL-28 4.35 µM | K562 3.06 µM | U-251 4.12 µM | RPMI-8226 3.28 µM | ACHN 11.1 µM | SN12C 7.89 µM | SK-MEL-2 8.83 µM | SK-OV-3 4.53 µM | BT-549 35.7 µM | MOLT-4 3.67 µM | T47D 4.19 µM | HT-29 2.81 µM | SNB-19 2.45 µM | OVCAR-5 3.87 µM | HL-60 2.69 µM | MDA-MB-231 6.32 µM
